# Measured values published in patent publication US11773071B2, “Benzothiazepine compounds and their use as bile acid modulators” (Albireo AB, priority 2019, dated 2023).
# Legend:
# Human IBAT = target: T1, Human IBAT (Homo sapiens, UniProt Q12908); assay: IBAT (h/m) assay, human IBAT-overexpressing cells, 3H-taurocholic acid uptake; type: cell-based; conditions: 0.25 μM 3H-taurocholic acid and 5 μM cold taurocholic acid, 20 minutes, read-out: hIBAT IC50
# T1 construct: expressed in transfected cells; Puromycin-selected
# T1 sequence (Q12908 1-348): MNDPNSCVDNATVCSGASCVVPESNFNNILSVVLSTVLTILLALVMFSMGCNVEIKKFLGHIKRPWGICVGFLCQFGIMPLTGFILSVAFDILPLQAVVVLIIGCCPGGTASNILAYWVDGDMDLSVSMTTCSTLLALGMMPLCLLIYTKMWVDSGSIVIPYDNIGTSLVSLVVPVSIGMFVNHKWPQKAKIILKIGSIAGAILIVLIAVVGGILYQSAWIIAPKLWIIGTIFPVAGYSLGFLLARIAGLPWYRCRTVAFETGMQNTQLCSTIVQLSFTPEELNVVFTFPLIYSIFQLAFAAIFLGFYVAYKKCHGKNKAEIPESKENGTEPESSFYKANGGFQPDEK
# Outline: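 Human or mouse IBAT-overexpressing cells, seeded 48 h before the assay, were incubated 20 min at 37 °C with 0.25 μM 3H-taurocholic acid plus 5 μM cold taurocholic acid and inhibitor (10-point 3-fold series from 10 μM top, 0.2% DMSO final), in duplicate. After ice stop and washes with 1 mM cold taurocholate, uptake was read by scintillation counting.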
# [1] = Bidirectional permeability assay (Caco-2 cells); type: in vitro ADME; conditions: human, Caco-2, absorptive direction (A2B), 10 μM in FaSSIF buffer
# Protocol: Bidirectional Permeability Assay (Caco-2 Cells)
# Caco-2 cells (Evotec) were seeded at a density of 70,000 cells/well in Millicell® 24-well cell culture insert plates and maintained in an incubator (37° C., 5% CO2, 95% RH) for 21 days with media change on alternate days.
# Stock solutions (10 mM) of the test compounds, atenolol (low permeability marker), propranolol (high permeability marker) and digoxin (substrate for P-gp transport pathway) were prepared in dimethylsulfoxide (DMSO). An intermediate stock solution (1 mM) was prepared by diluting 10 μL of 10 mM master stock solution with 90 μL of neat DMSO. A working stock solution (10 μM) was prepared by diluting 50 μL of 1 mM with 4950 μL of FaSSIF buffer. Post addition of compounds to the FaSSIF, samples were subjected to sonication for 2 hours, and centrifuged at 4000 RPM for 30 minutes at 37° C. The 4 mL of resultant supernatant was directly used in the assay. The final DMSO concentration in the transport experiments was 1%.
# On the day of assay, Caco-2 monolayers were washed twice with transport buffer (HBSS, pH 7.4) and pre-incubated for 30 min (37° C., 5% CO2, 95% RH) in an incubator. The electrical resistance of the monolayers was measured with a Millicell®—ERS system. Monolayers with trans-epithelial electrical resistance (TEER) values greater than 350 ohm·cm^2 were selected for the assay.
# The assay was conducted in absorptive direction (A2B) and secretory (B2A) directions. Transport experiments were initiated by addition of transport assay buffer (FaSSIF buffer prepared in HBSS) consisting of compounds to the donor compartment (apical chamber A-B; basolateral chamber B-A) in duplicate (n=2) wells. Drug free HBSS buffer (pH 7.4) containing 1% bovine serum albumin (BSA) was introduced to the receiver (A-B-basolateral; B-A-Apical) compartments. The volumes of apical and basolateral compartments were 0.4 and 0.8 mL, respectively. After adding dosing solution, plates were incubated in an incubator for 120 minutes at 37° C. After 120 minutes, donor and receiver samples were collected and matrix matched (1:1, 30 μL study sample+30 μL blank buffer) with the opposite buffer. Dosing samples matrix matched (1:1, 30 μL study sample+30 μL blank buffer) with the opposite buffer. Samples were processed by adding acetonitrile containing internal standard (60 μL study sample+200 μL acetonitrile containing internal standard—Tolbutamide, 500 ng/mL). Samples were vortexed and centrifuged at 4000 rpm for 10 minutes. The obtained supernatant (100 μL) was diluted with 100 μL of water and transferred to fresh 96 well plates. The concentration of compounds in the samples was analyzed by liquid chromatography tandem mass spectrometry (LC-MS/MS) method using discovery grade bio-analytical method, as applicable.
# The mean apparent permeability (Papp,×10^−6 cm/sec) of the test compounds, atenolol, propranolol and digoxin were calculated as follows:
# [formula] where dq/dt=rate of transport (rate of transport of compound in the receiver compartment), C0=initial concentration in the donor compartment, A=surface area of the effective filter membrane.
SMILES,IC50 (Human IBAT) [nM],"Papp A→B at 120 min, 10 μM [1] [×10⁻⁶ cm/s]"
"CCCCC1(CC)CN(c2ccccc2)c2cc(N(C)C)c(OCCC(=O)O)cc2S(=O)(=O)C1 (racemic) [Example 16, 3-((3-Butyl-7-(dimethylamino)-3-ethyl-1,1-dioxido-5-phenyl-2,3,4,5-tetrahydro-1,5-benzothiazepin-8-yl)oxy)propanoic acid]",3,17.6
"CCCCC1(CC)CN(c2ccccc2)c2cc(N(C)C)c(OCCC(=O)O)cc2S(=O)(=O)C1 (single isomer, unassigned) [Example 17, 3-((3-butyl-7-(dimethylamino)-3-ethyl-1,1-dioxido-5-phenyl-2,3,4,5-tetrahydro-1,5-benzothiazepin-8-yl)oxy)propanoic acid]",2,16.5
